In paper PMC10674617, “Design, Synthesis, Evaluation and Molecular Dynamics Simulation of Dengue Virus NS5-RdRp Inhibitors” (Pharmaceuticals, 2023):
“And” between values parts separate entries of the source, which are not always exact repeats. Equal entries are not always repeated. Where two headings read alike, the source gives them in different places.

Tests used:
[1] = test system: DENV2 NGC strain; test: Cytopathic effect (CPE) inhibition assay; assay type: cell-based, Dengue virus (DENV2); details: for IC50: BHK-21 cells, DENV2 NGC strain, mean ± SD of two individual experiments, read-out: DENV-NGC-IC50; for SI (Selectivity Index): ratio of CC50 to IC50
Protocol: The antiviral activities of the nine synthesized compounds against DENV were assessed using the DENV2 NGC strain and BHK-21 cells via CPE inhibition assays. BCX4430, NITD008, and 27 were used as positive controls (Figure S2). […] The activity of compound SW-d was higher than that of BCX4430 and lower than that of NITD008; however, its SI was higher than those of BCX4430 and NITD008.
In cell-based antiviral assays, the DENV2 NGC strain (Sino Biological Inc., Beijing, China) and BHK-21 cells (Baby hamster kidney cell line; ATCC CCL10) were used. The viral stock was prepared by inoculating C6/36 cells (Aedes albopictus clone C6/36; ATCC CRL166) as described previously. […] The supernatant was cleared by centrifugation at 2000 g for 5 min to remove cell debris and adjusted to 20% FBS. Aliquots of the virus were stored at […]. The 50% tissue culture infective dose (TCID50) was determined using the Promega Viral ToxGlo assay (Fisher Scientific, Ottawa, ON, Canada) in BHK-21 cells, according to the manufacturer’s instructions. Cell-based assays for the evaluation of antiviral activity against DENV were performed as described previously with modifications, using the Viral ToxGlo assay (Fisher Scientific, Ottawa, ON, Canada) according to the manufacturer’s instructions. Briefly, BHK-21 cells were plated in 96-well plates at 2500 cells/well in Dulbecco’s modified Eagle’s medium (DMEM) containing 10% FBS and 1% penicillin-streptomycin. Cells were incubated at 37 °C overnight and infected with 100 TCID50 of DENV for 90 min. The medium was replaced with DMEM containing 2.5% FBS and varying concentrations of the test compounds. Cell cultures were maintained at 37 °C in a 5% CO2 incubator for 3 days. The Viral Tox reagent was freshly prepared, and 100 μL of the reagent was added to each well. The plates were incubated for at least 10 min and then quantified using a 1450 MicroBeta TriLux microplate scintillation and luminescence counter (PerkinElmer, Waltham, MA, USA). For the off-target cytotoxicity assay, the test compounds were processed as described above, except without DENV infection of the cells. The luminescence readings were plotted against the log transformation of the concentration of the compound. Data were analyzed by nonlinear regression using GraphPad Prism 5.0 software (GraphPad Software, San Diego, CA, USA).

[2] = Cytotoxicity assay; assay type: cell-based; details: dog
[3] = target: T1, DENV2 RdRp (Dengue virus type 2, UniProt P14340); test: DENV biochemical enzyme assay; details: mean ± SD of two individual experiments
T1 construct: 100 nM of DENV2 full-length NS5 enzyme
Protocol: The inhibitory activities of compounds SW-b and SW-d against DENV-2 RdRp were assessed using in vitro enzyme inhibition assays. Compounds 3′-dATP, BCX4430, and NITD008 were used as controls. […] This confirmed the reliability of the DENV2 RdRp inhibitory activity assay.
Additionally, it contained 20 μM ATP, 20 μM GTP, 20 μM UTP, 5 μM ATTO-CTP, and 100 nM of DENV2 full-length NS5 enzyme. These were all suspended in a solution consisting of 50 mM Tris/HCl at pH 7.5, 10 mM KCl, 1 mM MgCl2, 0.3 mM MnCl2, 0.001% Triton-X-100, and 10 μM cysteine. Five compounds, with concentrations ranging from 0 to 20 or 100 μM, were serially diluted 2-fold into 384-well white opaque plates (Corning Costar, New York, NY, USA), resulting in a final volume of 5 μL. Subsequently, 5 μL of the enzyme in a 1× assay buffer was added to their respective wells. The plate was incubated at room temperature for 15 min, after which 5 μL of a mixture containing RNA and NTPs was introduced to initiate the reactions. After a reaction time of 120 min, the process was terminated by adding 10 μL of a 2.5× STOP buffer, comprising 200 mM NaCl, 25 mM MgCl2, and 1.5 M DEA adjusted to pH 10 using […]. Additionally, 25 nM of calf intestinal alkaline phosphatase (NEB) was introduced. The mixture was allowed to incubate at room temperature for an additional 60 min. To quantify the results, a Tecan Saffire II microplate reader was employed, with excitation max and emission max wavelengths set at 422 nm and 566 nm, respectively. All data points were analyzed in duplicate wells. Finally, the IC50 values were determined using a nonlinear regression curve fit for a sigmoidal dose–response (variable slope) in GraphPad Prism version 3.02 (GraphPad Prism, Inc., San Diego, CA).

[4] = test system: MDCK cells; test: Cytotoxicity assay; assay type: cell-based; details: cytotoxicity, MDCK cells
[5] = test system: DENV RdRp; design: method as in PMID 26984786, PMID 27500641; details: against all clinically relevant dengue virus serotypes; cited from earlier work
[6] = Dengue virus, DENV2, BHK-21, CPE inhibition

SMILES | IC50 [1, 6] | CC50 at 3 days [2] | other results
COc1cc(C)c(S(=O)(=O)NC(=O)Cn2nc(C)cc2C)cc1-c1ccc(C#CCO)s1 [SW-i] | > 200 µM | – | –
COc1cc(C)c(S(=O)(=O)NC(=O)c2ccc(C)c(Nc3nc(C)nc4c3CCC4)c2)cc1-c1ccc(C#CCO)s1 [SW-d] | 23.9 ± 1 µM | 134 µM | SI (Selectivity Index) [1]: 5.58; IC50 [3]: 13.5 ± 0.32 µM
COc1cccc(C(=O)NS(=O)(=O)c2cc(-c3ccc(C#CCO)s3)c(OC)cc2C)c1 [SW-a] | 57.6 ± 2.37 µM | – | –
Nc1ncnc2c([C@@H]3N[C@H](CO)[C@@H](O)[C@H]3O)c[nH]c12 [BCX4430, reference compound] | – | 100 µM | SI (Selectivity Index) [1]: 2.40
COc1cc(C)c(S(=O)(=O)NC(=O)c2ccc(C)s2)cc1-c1ccc(C#CCO)s1 [SW-g] | > 200 µM | – | –
C#C[C@@]1(O)[C@H](O)[C@@H](CO)O[C@H]1n1ccc2c(N)ncnc21 [NITD008, reference compound] | – | – | CC50 [4]: 20 µM; IC50 ([1]; CPE inhibition): 41.6 µM and 15.5 µM
COc1cc(C)c(C(=O)NS(=O)(=O)c2cccc3cccnc23)cc1-c1ccc(C#CCO)s1 [Compound 27, reference compound] | 19.7 ± 1.12 µM | – | IC50 [5]: 0.013 to 0.074 µM
COc1cc(C)c(S(=O)(=O)NC(=O)c2ccncn2)cc1-c1ccc(C#CCO)s1 [SW-h] | > 200 µM | – | –
COc1cc(C)c(S(=O)(=O)NC(=O)c2ccc(-n3c(C)ccc3C)cc2)cc1-c1ccc(C#CCO)s1 [SW-c] | 41.5 ± 1.37 µM | > 200 µM | –
COc1cc(C)c(S(=O)(=O)NC(=O)C2CC(=O)N(c3ccc(Cl)c(Cl)c3)C2)cc1-c1ccc(C#CCO)s1 (stereo not drawn) [SW-e] | > 200 µM | 69.9 µM | –
Nc1ncnc2c1ncn2[C@@H]1O[C@H](COP(=O)(O)OP(=O)(O)OP(=O)(O)O)C[C@H]1O [3′-dATP, reference compound] | – | – | IC50 [3]: 30.1 ± 8.26 µM
COc1cccc(S(=O)(=O)NC(=O)c2cc(-c3ccc(C#CCO)s3)c(OC)cc2OC)c1 [Compound 29] | – | – | IC50 [5]: 0.048 to 0.172 µM
COc1cc(C)c(S(=O)(=O)NC(=O)C(C)Oc2ccc3c4c(c(=O)oc3c2)CCCC4)cc1-c1ccc(C#CCO)s1 (stereo not drawn) [SW-b] | 3.58 ± 0.29 µM | 24.7 µM | SI (Selectivity Index) [1]: 6.89; IC50 [3]: 11.5 ± 1.3 µM
COc1cc(C)c(S(=O)(=O)NC(=O)c2ccc3c(c2)C(=O)N(c2cccc(C)c2)C3=O)cc1-c1ccc(C#CCO)s1 [SW-f] | 53.8 ± 4.53 µM | > 200 µM | SI (Selectivity Index) [1]: >3.72
